pEC50: −log10 of the molar value.
Assays:
Test in all cases: microbe, parasite or virus in culture
Type in all cases: cell-based
[1] = system: HCV 2a JFH-1 Rluc cells (dicistronic genotype 2a JFH-1 replicon, RLuc reporter); settings: Hepatitis C virus, genotype 2a JFH-1 replicon, RLuc reporter; read-out: 2a JFH
Description: (§1) Evaluation of cell-based anti-HCV activity: Antiviral potency (EC50) was determined using a Renilla luciferase (RLuc)-based HCV replicon reporter assay. To perform the assay for genotype 1 and 2a JFH-1, HCV 1b RLuc cells (harboring a dicistronic genotype 1b Con1 replicon that encodes a RLuc reporter), or HCV 1a RLuc cells (harboring a dicistronic genotype 1a H77 replicon that encodes a RLuc reporter), or HCV 2a JFH-1 Rluc cells (harboring a dicistronic genotype 2a JFH-1 replicon that encodes a RLuc reporter) were dispensed into 384-well plates. To perform the assay for genotype 2a (with M31 present) or 2b, HCV 2a Rluc or 2b Rluc cells (both with M31 present) harboring a dicistronic NS5A chimeric genotype 2a JFH-1 replicon that encodes a RLuc reporter and either genotype 2a J6 strain NS5A gene or genotype 2b MD2b-1 NS5A gene (based on Los Alamos HCV database isolates, both with M31 present) respectively, were dispensed into 384-well plates. To perform the assay for genotype 3 and 4, HCV 3a RLuc or 4a Rluc cells harboring a dicistronic NS5A chimeric genotype 1b Con1 replicon that encodes a RLuc reporter and either a consensus genotype 3a NS5A gene or genotype 4a NS5A gene (based on Los Alamos HCV database isolates) respectively, were dispensed into 384-well plates. Compounds were re-suspended in DMSO at a concentration of 10 mM and serially diluted in DMSO either manually or using an automated pipeting instrument. Serially diluted compounds were mixed with cell culture media and added to the seeded cells. […] 72 hours later, cells were lysed and Renilla luciferase activity quantified as recommended by the manufacturer (Promega-Madison, Wis.). Non-linear regression was performed to calculate EC50 values.

[2] = system: HCV 1a RLuc cells (dicistronic genotype 1a H77 replicon, RLuc reporter); settings: Hepatitis C virus, genotype 1a H77 replicon, RLuc reporter; read-out: 1a
Description: as §1

[3] = system: HCV 1b RLuc cells (dicistronic genotype 1b Con1 replicon, RLuc reporter); settings: Hepatitis C virus, read-out: 1b (nM)
Description: as §1

[4] = system: HCV 3a RLuc cells (NS5A chimeric genotype 1b Con1 replicon with consensus genotype 3a NS5A gene); settings: Hepatitis C virus, read-out: 3a, genotype 3a NS5A chimeric 1b Con1 replicon
Description: as §1

Structure (SMILES) | pEC50 [1] | pEC50 [2] | EC50 [3] | pEC50 [4]
COC(=O)N[C@H](C(=O)N1CCC[C@H]1c1ncc(-c2ccc(-c3ccc4cc(-c5cnc([C@@H]6CCCN6C(=O)[C@@H](NC(=O)OC)C(C)C)[nH]5)ccc4c3)cc2)[nH]1)c1ccc(Cl)cc1 [Example 106] | 7.36 to 9.00 | 7.36 to 9.00 | 0.024 nM | 8.30 to 9.00
COC(=O)NC(C(=O)N1CCC[C@H]1c1ncc(-c2ccc(-c3ccc4cc(-c5cnc([C@@H]6CCCN6C(=O)[C@@H](NC(=O)OC)C(C)C)[nH]5)ccc4c3)cc2)[nH]1)c1ccc(Cl)cc1 (some centres unmarked) [Example 107] | 7.36 to 9.00 | 7.36 to 9.00 | 0.024 nM | 8.30 to 9.00
COC(=O)N[C@H](C(=O)N1CCC[C@H]1c1ncc(-c2ccc(-c3ccc4cc(-c5cnc([C@@H]6CCCN6C(=O)[C@@H](NC(=O)OC)C(C)C)[nH]5)ccc4c3)cc2)[nH]1)c1ccc(OC)cc1 [Example 108] | 7.36 to 9.00 | 9.00 to 12.00 | 0.028 nM | < 8.30
COC(=O)N[C@H](C(=O)N1CCC[C@H]1c1ncc(-c2ccc3cc(-c4ccc(-c5cnc([C@@H]6CCCN6C(=O)[C@H](NC(=O)OC)c6ccc(OC)cc6)[nH]5)cc4)ccc3c2)[nH]1)C(C)C [Example 109] | < 7.36 | 7.36 to 9.00 | 1.6 nM | < 8.30
COC(=O)N[C@H](C(=O)N1CCC[C@H]1c1ncc(-c2ccc(-c3ccc4cc(-c5cnc([C@@H]6CCCN6C(=O)C(c6ccccc6)N(C)C)[nH]5)ccc4c3)cc2)[nH]1)C(C)C (some centres unmarked) [Example 110] | 9.00 to 12.00 | 9.00 to 12.00 | 0.009 nM | 9.00 to 12.00
COC(=O)NC(C(=O)N1CCC[C@H]1c1ncc(-c2ccc3cc(-c4ccc(-c5cnc([C@@H]6CCCN6C(=O)[C@@H](NC(=O)OC)C(C)C)[nH]5)cc4)ccc3c2)[nH]1)c1ccc(OC(F)(F)F)cc1 (some centres unmarked) [Example 111] | < 7.36 | 7.36 to 9.00 | 0.16 nM | < 8.30
COC(=O)N[C@H](C(=O)N1Cc2ccccc2C1c1nc(-c2ccc(-c3ccc4cc(-c5cnc([C@@H]6CCCN6C(=O)[C@@H](NC(=O)OC)C(C)C)[nH]5)ccc4c3)cc2)c[nH]1)C(C)C (some centres unmarked) [Example 112] | 7.36 to 9.00 | 9.00 to 12.00 | 0.018 nM | < 8.30
COC(=O)N[C@H](C(=O)N1C[C@H](C)C[C@H]1c1ncc(-c2ccc(-c3ccc4cc(-c5cnc([C@@H]6C[C@H](C#N)CN6C(=O)[C@H](NC(=O)OC)c6ccccc6)[nH]5)ccc4c3)cc2)[nH]1)C(C)C [Example 113] | 9.00 to 12.00 | 9.00 to 12.00 | 0.014 nM | 9.00 to 12.00
COC(=O)N[C@H](C(=O)N1CCC[C@H]1c1ncc(-c2ccc3cc(C#Cc4cnc([C@@H]5CCCN5C(=O)[C@H](NC(=O)OC)c5ccccc5)[nH]4)ccc3c2)[nH]1)C(C)C [Example 115] | 9.00 to 12.00 | 9.00 to 12.00 | 0.019 nM | 9.00 to 12.00
COC(=O)N[C@H](C(=O)N1CCC[C@H]1c1ncc(-c2ccc3cc(-c4ccc(-c5cnc([C@@H]6SCCN6C(=O)[C@H](NC(=O)OC)c6ccccc6)[nH]5)cc4)ccc3c2)[nH]1)C(C)C [Example 117] | 9.00 to 12.00 | 9.00 to 12.00 | 0.007 nM | 9.00 to 12.00
COC(=O)N[C@H](C(=O)N1CCC[C@H]1c1ncc(-c2ccc(-c3ccc4cc(-c5cnc([C@@H]6C[C@H](C#N)CN6C(=O)[C@@H](c6ccccc6)N(C)C)[nH]5)ccc4c3)cc2)[nH]1)C(C)C [Example 118] | 9.00 to 12.00 | 9.00 to 12.00 | 0.027 nM | 9.00 to 12.00
COC(=O)N(C)[C@H](C(=O)N1CCC[C@H]1c1ncc(-c2ccc3cc(-c4ccc(-c5cnc([C@@H]6CCCN6C(=O)C(c6ccccc6)N6CCOCC6)[nH]5)cc4)ccc3c2)[nH]1)C(C)C (some centres unmarked) [Example 119] | 9.00 to 12.00 | 9.00 to 12.00 | 0.02 nM | 9.00 to 12.00
COC(=O)N[C@H](C(=O)N1CCC[C@H]1c1ncc(-c2ccc(-c3ccc4cc(-c5cnc([C@@H]6CCCN6C(=O)C(c6ccccc6)N6CCOCC6)[nH]5)ccc4c3)cc2)[nH]1)C(C)C (some centres unmarked) [Example 120] | 9.00 to 12.00 | 9.00 to 12.00 | 0.014 nM | 9.00 to 12.00
COC(=O)N[C@H](C(=O)N1C[C@H](C)C[C@H]1c1ncc(-c2cc3cc4sc(-c5cnc([C@@H]6C[C@@H](C)CN6C(=O)[C@@H](NC(=O)OC)C(C)C)[nH]5)cc4cc3s2)[nH]1)C(C)C [Example 121] | 9.00 to 12.00 | 9.00 to 12.00 | 0.011 nM | 8.30 to 9.00
COC(=O)N[C@H](C(=O)N1CCC[C@H]1c1ncc(-c2ccc3cc(-c4ccc(-c5cnc([C@@H]6C[C@H](C#N)CN6C(=O)[C@H](NC(=O)OC)c6ccccc6)[nH]5)cc4)ccc3c2)[nH]1)C(C)C [Example 124] | 9.00 to 12.00 | 9.00 to 12.00 | 0.011 nM | 9.00 to 12.00
COC(=O)N[C@H](C(=O)N1CCC[C@H]1c1ncc(-c2ccc(-c3ccc4cc(-c5cnc([C@@H]6CCCN6C(=O)C(c6ccccc6)N6CCCC6)[nH]5)ccc4c3)cc2)[nH]1)C(C)C (some centres unmarked) [Example 125] | 9.00 to 12.00 | 9.00 to 12.00 | 0.032 nM | 9.00 to 12.00
COC(=O)N[C@@H](CC(F)F)C(=O)N1CCC[C@H]1c1ncc(-c2ccc3cc(-c4ccc(-c5cnc([C@@H]6CCCN6C(=O)[C@H](NC(=O)OC)c6ccccc6)[nH]5)cc4)ccc3c2)[nH]1 [Example 127] | 9.00 to 12.00 | 9.00 to 12.00 | 0.006 nM | 9.00 to 12.00
COC(=O)N[C@H](C(=O)N1CCC[C@H]1c1ncc(-c2ccc3cc(-c4ccc(-c5cnc([C@@H]6C[C@H](C)CN6C(=O)[C@H](NC(=O)OC)c6ccccc6)[nH]5)cc4)ccc3c2)[nH]1)C(C)C [Example 130] | 9.00 to 12.00 | 9.00 to 12.00 | 0.006 nM | 9.00 to 12.00
COC(=O)N[C@H](C(=O)C1CCSC1c1ncc(-c2ccc(-c3ccc4cc(-c5cnc([C@@H]6CCCN6C(=O)[C@H](NC(=O)OC)c6ccccc6)[nH]5)ccc4c3)cc2)[nH]1)C(C)C (some centres unmarked) [Example 131] | 9.00 to 12.00 | 9.00 to 12.00 | 0.009 nM | 9.00 to 12.00
COC(=O)N[C@H](C(=O)N1C[C@H](C)C[C@H]1c1ncc(-c2ccc3cc(-c4ccc(-c5cnc([C@@H]6CCCN6C(=O)[C@H](NC(=O)OC)c6ccccc6)[nH]5)cc4)ccc3c2)[nH]1)C(C)C [Example 132] | 9.00 to 12.00 | 9.00 to 12.00 | 0.003 nM | 9.00 to 12.00
COC(=O)N[C@H](C(=O)N1CCC[C@H]1c1ncc(-c2ccc3cc(-c4ccc(-c5cnc([C@@H]6CCCN6C(=O)C(c6ccccc6)N(C)C)[nH]5)cc4)ccc3c2)[nH]1)C(C)C (some centres unmarked) [Example 134] | 9.00 to 12.00 | 9.00 to 12.00 | 0.007 nM | 9.00 to 12.00
COC(=O)N[C@H](C(=O)N1C[C@H](C#N)C[C@H]1c1ncc(-c2ccc3cc(-c4ccc(-c5cnc([C@@H]6CCCN6C(=O)[C@H](NC(=O)OC)c6ccccc6)[nH]5)cc4)ccc3c2)[nH]1)C(C)C [Example 135] | 9.00 to 12.00 | 9.00 to 12.00 | 0.006 nM | < 8.30
COC(=O)N[C@H](C(=O)N1C[C@@H](C#N)C[C@H]1c1ncc(-c2ccc3cc(-c4ccc(-c5cnc([C@@H]6CCCN6C(=O)[C@@H](c6ccccc6)N(C)C)[nH]5)cc4)ccc3c2)[nH]1)C(C)C [Example 137] | 9.00 to 12.00 | 9.00 to 12.00 | 0.012 nM | 9.00 to 12.00
CCN(CC)C(C(=O)N1CCC[C@H]1c1ncc(-c2ccc(-c3ccc4cc(-c5cnc([C@@H]6CCCN6C(=O)[C@@H](NC(=O)OC)C(C)C)[nH]5)ccc4c3)cc2)[nH]1)c1ccccc1 (some centres unmarked) [Example 138] | 9.00 to 12.00 | 9.00 to 12.00 | 0.006 nM | 9.00 to 12.00
COC(=O)N[C@H](C(=O)N1CCC[C@H]1c1ncc(-c2ccc3cc(-c4ccc(-c5cnc([C@@H]6C[C@@H](F)CN6C(=O)[C@H](NC(=O)OC)c6ccccc6)[nH]5)cc4)ccc3c2)[nH]1)C(C)C [Example 139] | 7.36 to 9.00 | 9.00 to 12.00 | 0.004 nM | 9.00 to 12.00
COC(=O)N[C@H](C(=O)N1CCC[C@H]1c1ncc(-c2nc3cc4sc(-c5cnc([C@@H]6CCCN6C(=O)[C@@H](NC(=O)OC)C(C)C)[nH]5)nc4cc3s2)[nH]1)C(C)C [Example 141] | 7.36 to 9.00 | 7.36 to 9.00 | 0.181 nM | < 8.30
